Results: BindingDB's records for doi:10.1016/j.bmcl.2011.07.125 (Pfizer, 2011)
pIC50: −log10 of the molar value.

Test: Antagonist activity at H4R in human eosinophils assessed as inhibition of histamine-induced shape change by GAFS assay

pIC50: 9.19
SMILES: CN[C@@H]1CCN(c2cc(NCC3CC3)nc(N)n2)C1
